Test [1] has as its target T1, Flt-4 (baculovirus expressed human Flt-4 kinase domain D725-R1298) (Homo sapiens, UniProt P35916).
T1 construct: human Flt-4 kinase domain D725-R1298; host or cells: baculovirus expression
The experiment in a line: flt-4 Alphascreen Tyrosine Kinase assay.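 Also: AlphaScreen chemiluminescence read-out of biotinylated poly(Glu,Tyr) 4:1 phosphorylation via streptavidin donor and PY100 anti-phosphotyrosine acceptor beads, ATP near KM, 1 hr kinase reaction, 10-point dose-response.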 Type of test: biochemical. Particulars: read-out: flt4 IC50.
Protocol: (§1) Kinase activity and compound inhibition are investigated using one or more of the three assay formats described below. The ATP concentrations for each assay are selected to be close to the Michaelis-Menten constant (KM) for each individual kinase. Dose-response experiments are performed at 10 different inhibitor concentrations in a 384-well plate format. […] Typically H is close to unity. c-Met Assay
Biochemical activity for flt-4 was assessed using an Alphascreen Tyrosine Kinase protocol. AlphaScreen™ (Perkin Elmer) technology is a proximity assay employing microparticles. Singlet oxygen derived from a donor bead following laser excitation results in chemiluminescence when in proximity (100 Å) to an acceptor bead due to biomolecular interactions. For the Flt-4 assay, donor beads coated with streptavidin and acceptor beads coated with PY100 anti-phosphotyrosine antibody were used (Perkin Elmer). Biotinylated poly(Glu,Tyr) 4:1 (Perkin Elmer) was used as the substrate. Substrate phosphorylation was measured by addition of donor/acceptor beads by chemiluminescence following donor-acceptor bead complex formation. […] Reaction mixtures were incubated for 1 hr at ambient temperature. […] After 2-16 hr incubation at ambient temperature plates were read using an AlphaQuest reader (Perkin Elmer).

The target of test [2] is c-Kit kinase (Homo sapiens, UniProt P10721). The test can be described thus: c-Kit AlphaScreen kinase assay.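 Also: c-Kit kinase phosphorylating biotinylated poly(Glu,Tyr), ATP near its KM, 1 h reaction at ambient temperature, AlphaScreen chemiluminescence with streptavidin donor and anti-phosphotyrosine acceptor beads, 10-point inhibitor titration.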 Type of test: biochemical.
c-Kit kinase, sequence (P10721 26-976): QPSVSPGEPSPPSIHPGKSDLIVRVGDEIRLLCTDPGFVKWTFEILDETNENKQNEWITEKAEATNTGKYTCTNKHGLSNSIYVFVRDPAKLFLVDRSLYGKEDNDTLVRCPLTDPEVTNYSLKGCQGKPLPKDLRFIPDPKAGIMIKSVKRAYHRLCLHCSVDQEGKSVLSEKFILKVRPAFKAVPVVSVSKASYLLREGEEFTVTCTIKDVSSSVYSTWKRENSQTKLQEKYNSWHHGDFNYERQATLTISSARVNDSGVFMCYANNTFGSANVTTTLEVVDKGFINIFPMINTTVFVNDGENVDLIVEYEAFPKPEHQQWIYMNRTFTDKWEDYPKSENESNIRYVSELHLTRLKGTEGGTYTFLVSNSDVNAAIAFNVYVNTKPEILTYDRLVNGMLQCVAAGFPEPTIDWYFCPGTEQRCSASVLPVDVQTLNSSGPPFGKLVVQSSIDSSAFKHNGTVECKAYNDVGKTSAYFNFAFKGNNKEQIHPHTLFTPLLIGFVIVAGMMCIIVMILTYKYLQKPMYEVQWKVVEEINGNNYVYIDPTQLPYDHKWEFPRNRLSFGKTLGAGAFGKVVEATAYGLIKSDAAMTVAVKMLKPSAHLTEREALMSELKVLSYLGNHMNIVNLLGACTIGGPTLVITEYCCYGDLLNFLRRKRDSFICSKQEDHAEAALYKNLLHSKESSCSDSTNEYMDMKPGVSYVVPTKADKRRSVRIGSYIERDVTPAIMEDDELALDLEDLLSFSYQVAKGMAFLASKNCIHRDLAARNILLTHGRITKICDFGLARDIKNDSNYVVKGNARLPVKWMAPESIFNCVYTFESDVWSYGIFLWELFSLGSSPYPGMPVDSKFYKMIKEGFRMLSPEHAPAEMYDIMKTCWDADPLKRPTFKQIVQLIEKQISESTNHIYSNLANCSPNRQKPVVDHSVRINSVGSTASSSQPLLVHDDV
Test [3] has as its target T2, KDR (baculovirus expressed human KDR kinase domain D807-V1356) (Homo sapiens, UniProt P35968).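 Also: Luciferase-coupled chemiluminescent kinase assay, activity read as percent ATP left after 4 h reaction at ambient temperature, ATP near KM, 10-point dose-response in 384-well plates.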
T2 construct: human KDR kinase domain D807-V1356; host or cells: baculovirus expression
The experiment in a line: biochemical.
Protocol: (§2) Kinase activity and compound inhibition are investigated using one or more of the three assay formats described below. The ATP concentrations for each assay are selected to be close to the Michaelis-Menten constant (KM) for each individual kinase. Dose-response experiments are performed at 10 different inhibitor concentrations in a 384-well plate format.
KDR biochemical activity was assessed using a Luciferase-Coupled Chemiluminescent Kinase assay (LCCA) format. Kinase activity was measured as the percent ATP remaining following the kinase reaction. Remaining ATP was detected by luciferase-luciferin-coupled chemiluminescence. […] The mixture is incubated at ambient temperature for 4 hours after which 20 uL luciferase-luciferin mix is added and the chemiluminescent signal read using a Wallac Victor^2 reader.

In test [4] the target is T3, Flt-3 (baculovirus expressed human Flt-3 kinase domain R571-S993) (Homo sapiens, UniProt P36888).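 Also: Luciferase-coupled chemiluminescent kinase assay, activity read as percent ATP left after a 3 h reaction at room temperature, ATP near KM, 10-point dose-response.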
T3 construct: human Flt-3 kinase domain R571-S993; host or cells: baculovirus expression
T3 sequence (P36888 571-993): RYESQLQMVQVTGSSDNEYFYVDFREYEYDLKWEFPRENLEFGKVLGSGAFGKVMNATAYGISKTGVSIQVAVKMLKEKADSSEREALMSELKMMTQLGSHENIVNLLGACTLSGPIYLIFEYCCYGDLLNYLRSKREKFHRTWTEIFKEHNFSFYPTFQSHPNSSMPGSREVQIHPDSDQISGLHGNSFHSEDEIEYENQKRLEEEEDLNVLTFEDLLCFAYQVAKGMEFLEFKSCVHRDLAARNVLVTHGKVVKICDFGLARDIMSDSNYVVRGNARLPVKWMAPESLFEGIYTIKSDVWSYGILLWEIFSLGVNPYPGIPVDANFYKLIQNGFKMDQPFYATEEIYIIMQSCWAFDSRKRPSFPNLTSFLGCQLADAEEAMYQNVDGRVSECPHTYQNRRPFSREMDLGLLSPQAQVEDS
The experiment in a line: biochemical. The conditions noted are these: read-out: flt3 IC50.
Protocol: as §2
Biochemical activity for flt-3 was assessed using a Luciferase-Coupled Chemiluminescent Kinase assay (LCCA) format. Kinase activity was measured as the percent ATP remaining following the kinase reaction. Remaining ATP was detected by luciferase-luciferin-coupled chemiluminescence. […] The mixture is incubated at ambient temperature for 3 hours after which 20 uL luciferase-luciferin mix is added and the chemiluminescent signal read using a Wallac Victor^2 reader.

The target in test [5] is T4, c-Met (baculovirus expressed human c-Met kinase domain P948-S1343) (Homo sapiens, UniProt P08581).
T4 construct: human c-Met kinase domain P948-S1343; host or cells: baculovirus expression
T4 sequence (P08581 1011-1343 limits assumed): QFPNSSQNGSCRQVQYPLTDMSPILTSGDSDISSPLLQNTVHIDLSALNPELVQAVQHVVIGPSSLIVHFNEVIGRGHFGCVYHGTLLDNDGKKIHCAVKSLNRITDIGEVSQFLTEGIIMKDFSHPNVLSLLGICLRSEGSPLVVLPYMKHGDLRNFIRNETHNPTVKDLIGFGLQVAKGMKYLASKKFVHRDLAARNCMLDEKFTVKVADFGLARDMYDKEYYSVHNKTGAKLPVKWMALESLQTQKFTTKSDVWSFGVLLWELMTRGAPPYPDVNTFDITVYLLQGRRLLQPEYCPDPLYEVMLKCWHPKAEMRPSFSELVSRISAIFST
The experiment in a line: c-Met Luciferase-Coupled Chemiluminescent Kinase assay (LCCA).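 Also: kinase activity read as percent ATP left after reaction, by luciferase-luciferin chemiluminescence, with 1 µM ATP and 1 µM poly-EY substrate, 2 h at ambient temperature, 10-point dose-response.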 In kind it is biochemical.
Protocol: as §1
c-Met biochemical activity was assessed using a Luciferase-Coupled Chemiluminescent Kinase assay (LCCA) format as described above. Again, kinase activity was measured as the percent ATP remaining following the kinase reaction. Remaining ATP was detected by luciferase-luciferin-coupled chemiluminescence. Specifically, the reaction was initiated by mixing test compounds, 1 μM ATP, 1 μM poly-EY and 10 nM c-Met (baculovirus expressed human c-Met kinase domain P948-S1343) in a 20 uL assay buffer (20 mM Tris-HCL pH7.5, 10 mM MgCl2, 0.02% Triton X-100, 100 mM DTT, 2 mM MnCu2). The mixture is incubated at ambient temperature for 2 hours after which 20 uL luciferase-luciferin mix is added and the chemiluminescent signal read using a Wallac Victor^2 reader.

[6] abbreviates: Table 4, inhibition as IC50 class.

SMILES strings stand for the structures. Like-named read-outs stand apart in the source and are kept apart here. Some results are limits rather than exact numbers.

T1 sequence (P35916 725-1298 isoform P35916-1): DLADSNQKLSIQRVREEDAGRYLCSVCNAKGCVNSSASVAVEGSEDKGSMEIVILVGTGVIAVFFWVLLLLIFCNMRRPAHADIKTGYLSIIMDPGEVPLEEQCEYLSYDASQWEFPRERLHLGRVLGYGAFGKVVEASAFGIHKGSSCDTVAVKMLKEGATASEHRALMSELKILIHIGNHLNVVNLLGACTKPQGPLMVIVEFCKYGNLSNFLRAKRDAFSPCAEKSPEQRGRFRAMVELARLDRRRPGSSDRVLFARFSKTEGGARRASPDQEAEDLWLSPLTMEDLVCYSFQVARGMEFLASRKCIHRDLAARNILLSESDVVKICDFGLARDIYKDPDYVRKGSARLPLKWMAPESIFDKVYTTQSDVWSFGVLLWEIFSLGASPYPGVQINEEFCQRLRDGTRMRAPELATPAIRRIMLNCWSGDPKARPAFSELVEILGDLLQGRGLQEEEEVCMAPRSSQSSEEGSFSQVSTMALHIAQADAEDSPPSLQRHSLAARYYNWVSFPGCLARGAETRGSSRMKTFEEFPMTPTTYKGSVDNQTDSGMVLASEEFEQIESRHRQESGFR
T2 sequence (P35968 807-1356): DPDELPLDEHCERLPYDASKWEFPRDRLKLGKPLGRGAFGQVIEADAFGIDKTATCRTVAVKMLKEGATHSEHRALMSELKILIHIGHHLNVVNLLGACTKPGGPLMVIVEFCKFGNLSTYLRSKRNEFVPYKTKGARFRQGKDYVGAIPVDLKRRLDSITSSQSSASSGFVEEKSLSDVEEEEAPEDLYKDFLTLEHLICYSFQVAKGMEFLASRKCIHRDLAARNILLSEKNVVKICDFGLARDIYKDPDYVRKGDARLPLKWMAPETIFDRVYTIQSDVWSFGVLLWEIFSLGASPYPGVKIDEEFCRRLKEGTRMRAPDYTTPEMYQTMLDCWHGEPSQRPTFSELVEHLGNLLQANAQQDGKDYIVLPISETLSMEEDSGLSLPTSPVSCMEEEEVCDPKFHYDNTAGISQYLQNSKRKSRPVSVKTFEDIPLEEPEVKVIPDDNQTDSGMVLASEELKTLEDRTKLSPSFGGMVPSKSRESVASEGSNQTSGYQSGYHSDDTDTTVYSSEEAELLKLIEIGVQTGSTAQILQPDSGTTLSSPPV

For `COc1cc2c(Oc3ccc(NC(=O)C(=O)NCc4ccc(F)c(F)c4)cc3F)ccnc2cc1OCC1CCNCC1` [Example 256, N-[(3,4-difluorophenyl)methyl]-N′-[3-fluoro-4-({6-(methyloxy)-7-[(piperidin-4-ylmethyl)oxy]quinolin-4-yl}oxy)phenyl]ethanediamide], the IC50 in test [1] (setting [6]) was under 50 nM; in test [2] (setting [6]), under 50 nM; in test [3] (setting [6]) it was under 50 nM; in test [4] (setting [6]), 50 to 500 nM; in test [5] (setting [6]) it was under 50 nM.

As to `COc1cc2c(Oc3ccc(NC(=O)C(=O)NCC4CC4)cc3F)ccnc2cc1OCC1CCNCC1` [Example 297, N-(cyclopropylmethyl)-N′-[3-fluoro-4-({6-(methyloxy)-7-[(piperidin-4-ylmethyl)oxy]quinolin-4-yl}oxy)phenyl]ethanediamide], the 50% inhibitory concentration (IC50) in test [1] was 50 to 500 nM; in test [2], 50 to 500 nM; in test [3] it was 50 to 500 nM; in test [4], 50 to 500 nM; in test [5], under 50 nM.

On to `COc1cc2c(Oc3ccc(NC(=O)C(=O)N[C@H]4CCCc5ccccc54)cc3F)ccnc2cc1OCC1CCNCC1` [Example 219, N-[3-fluoro-4-({6-(methyloxy)-7-[(piperidin-4-ylmethyl)oxy]quinolin-4-yl}oxy)phenyl]-N′-[(1S)-1,2,3,4-tetrahydronaphthalen-1-yl]ethanediamide], for which the half-inhibitory concentration (IC50) in test [1] (setting [6]), in test [2] (setting [6]), in test [3] (setting [6]), in test [4] (setting [6]) and in test [5] (setting [6]) was under 50 nM throughout.

With `COc1cc2nccc(Oc3cc(Cl)c(NC(=O)C4(C(=O)Nc5ccc(F)cc5)CC4)cc3C)c2cc1OC` [Example 329, N-(4-{[6,7-bis(methyloxy)quinolin-4-yl]oxy}-2-chloro-5-methylphenyl)-N′-(4-fluorophenyl)cyclopropane-1,1-dicarboxamide], the IC50 was 50 to 500 nM in test [1]; 50 to 500 nM in test [2]; 50 to 500 nM in test [3]; 500 to 5000 nM in test [4]; under 50 nM in test [5].

Take `COc1cc2ncnc(Oc3ccc(NC(=O)C4(C(=O)Nc5ccc(F)cc5)CC4)cc3F)c2cc1OCC1CCN(C)CC1` [Example 325, N-{3-fluoro-4-[(7-(methyloxy)-6-{[(1-methylpiperidin-4-yl)methyl]oxy}quinazolin-4-yl)oxy]phenyl}-N′-(4-fluorophenyl)cyclopropane-1,1-dicarboxamide]: the IC50 was under 50 nM in test [1]; 50 to 500 nM in test [2]; under 50 nM in test [3]; under 50 nM in test [4]; under 50 nM in test [5].

Take `COc1cc2c(Oc3ccc(NC(=O)C(=O)NCc4cc(F)cc(F)c4)cc3F)ccnc2cc1OCC1CCNCC1` [Example 233, N-[(3,5-difluorophenyl)methyl]-N′-[3-fluoro-4-({6-(methyloxy)-7-[(piperidin-4-ylmethyl)oxy]quinolin-4-yl}oxy)phenyl]ethanediamide]: the IC50 in test [1] (setting [6]) was under 50 nM; in test [2] (setting [6]), under 50 nM; in test [3] (setting [6]) it was under 50 nM; in test [4] (setting [6]), 50 to 500 nM; in test [5] (setting [6]), under 50 nM.

With `COc1cc2c(Oc3ccc(NC(=O)C(=O)NCc4cc(C(F)(F)F)ccc4F)cc3F)ccnc2cc1OCC1CCNCC1` [Example 281, N-[3-fluoro-4-({6-(methyloxy)-7-[(piperidin-4-ylmethyl)oxy]quinolin-4-yl}oxy)phenyl]-N′-{[2-fluoro-5-(trifluoromethyl)phenyl]methyl}ethanediamide], the half-maximal inhibitory concentration (IC50) in test [1] (setting [6]) was 50 to 500 nM; in test [2] (setting [6]), 50 to 500 nM; in test [3] (setting [6]), under 50 nM; in test [4] (setting [6]), under 50 nM; in test [5] (setting [6]) it was under 50 nM.

On to `COc1cc2c(Oc3ccc(NC(=O)C(=O)NCc4cc(F)cc(C(F)(F)F)c4)cc3F)ccnc2cc1OCC1CCNCC1` [Example 232, N-[3-fluoro-4-({6-(methyloxy)-7-[(piperidin-4-ylmethyl)oxy]quinolin-4-yl}oxy)phenyl]-N′-{[3-fluoro-5-(trifluoromethyl)phenyl]methyl}ethanediamide], for which the concentration for half-maximal inhibition (IC50) in test [1] (setting [6]) is 50 to 500 nM; in test [2] (setting [6]), 50 to 500 nM; in test [3] (setting [6]), under 50 nM; in test [4] (setting [6]) it was under 50 nM; in test [5] (setting [6]) it was under 50 nM.

Regarding `COc1ccccc1CNC(=O)C(=O)Nc1ccc(Oc2ccnc3cc(OCC4CCNCC4)c(OC)cc23)c(F)c1` [Example 241, N-[3-fluoro-4-({6-(methyloxy)-7-[(piperidin-4-ylmethyl)oxy]quinolin-4-yl}oxy)phenyl]-N′-{[2-(methyloxy)phenyl]methyl}ethanediamide], the IC50 in test [1] (setting [6]), in test [2] (setting [6]), in test [3] (setting [6]), in test [4] (setting [6]) and in test [5] (setting [6]) was under 50 nM each time.

With `COc1cc2c(Oc3ccc(NC(=O)C(=O)Nc4ccc(F)c(Cl)c4)cc3F)ccnc2cc1OCC1CCNCC1` [Example 261, N-(3-chloro-4-fluorophenyl)-N′-[3-fluoro-4-({6-(methyloxy)-7-[(piperidin-4-ylmethyl)oxy]quinolin-4-yl}oxy)phenyl]ethanediamide], the IC50 in test [1] (setting [6]) is 50 to 500 nM; in test [2] (setting [6]), 500 to 5000 nM; in test [3] (setting [6]), 500 to 5000 nM; in test [4] (setting [6]), 50 to 500 nM; in test [5] (setting [6]), under 50 nM.

Take `COc1cc2ncnc(Oc3ccc(NC(=O)C4(C(=O)Nc5ccc(F)cc5)CC4)cc3F)c2cc1OC` [Example 311, N-(4-{[6,7-bis(methyloxy)quinazolin-4-yl]oxy}-3-fluorophenyl)-N′-(4-fluorophenyl)cyclopropane-1,1-dicarboxamide]: the IC50 in test [1] is under 50 nM; in test [2] it was 50 to 500 nM; in test [3], under 50 nM; in test [4] it was under 50 nM; in test [5], under 50 nM.

As for `COc1cc2nccc(Oc3c(F)cc(NC(=O)C4(C(=O)Nc5ccc(F)cc5)CC4)c(F)c3F)c2cc1OC` [Example 327, N-(4-{[6,7-bis(methyloxy)quinolin-4-yl]oxy}-2,3,5-trifluorophenyl)-N′-(4-fluorophenyl)cyclopropane-1,1-dicarboxamide], the IC50 is 50 to 500 nM in test [1]; 50 to 500 nM in test [2]; under 50 nM in test [3]; 50 to 500 nM in test [4]; under 50 nM in test [5].

For `COc1cc2c(Oc3ccc(NC(=O)C(=O)NCCC(C)C)cc3F)ccnc2cc1OCC1CCNCC1` [Example 263, N-[3-fluoro-4-({6-(methyloxy)-7-[(piperidin-4-ylmethyl)oxy]quinolin-4-yl}oxy)phenyl]-N′-(3-methylbutyl)ethanediamide], the 50% inhibitory concentration (IC50) in test [1] (setting [6]) is 50 to 500 nM; in test [2] (setting [6]), under 50 nM; in test [3] (setting [6]) it was 50 to 500 nM; in test [4] (setting [6]) it was 50 to 500 nM; in test [5] (setting [6]), under 50 nM.

With `COc1cc2c(Oc3ccc(NC(=O)C(=O)NCCC(C)(C)C)cc3F)ccnc2cc1OCC1CCNCC1` [Example 264, N-(3,3-dimethylbutyl)-N′-[3-fluoro-4-({6-(methyloxy)-7-[(piperidin-4-ylmethyl)oxy]quinolin-4-yl}oxy)phenyl]ethanediamide], the IC50 in test [1] (setting [6]) is 50 to 500 nM; in test [2] (setting [6]), under 50 nM; in test [3] (setting [6]) it was under 50 nM; in test [4] (setting [6]), under 50 nM; in test [5] (setting [6]) it was under 50 nM.

On to `O=C(Nc1ccc(F)cc1)C1(C(=O)Nc2ccc(Oc3ccnc4cc(Cl)ccc34)c(F)c2)CC1` [Example 303, N-{4-[(7-chloroquinolin-4-yl)oxy]-3-fluorophenyl}-N′-(4-fluorophenyl)cyclopropane-1,1-dicarboxamide], for which the IC50 in test [1] is 50 to 500 nM; in test [2] it was 500 to 5000 nM; in test [3], under 50 nM; in test [4] it was 500 to 5000 nM; in test [5] it was under 50 nM.

For `COc1cc2c(Oc3ccc(NC(=O)C(=O)NCc4cccc(C(F)(F)F)c4F)cc3F)ccnc2cc1OCC1CCNCC1` [Example 277, N-[3-fluoro-4-({6-(methyloxy)-7-[(piperidin-4-ylmethyl)oxy]quinolin-4-yl}oxy)phenyl]-N′-{[2-fluoro-3-(trifluoromethyl)phenyl]methyl}ethanediamide], the concentration for half-maximal inhibition (IC50) in test [1] (setting [6]), in test [2] (setting [6]), in test [3] (setting [6]), in test [4] (setting [6]) and in test [5] (setting [6]) was under 50 nM each time.

In the case of `COc1cc2c(Oc3ncc(NC(=O)C4(C(=O)Nc5ccc(F)cc5)CC4)cc3Cl)ccnc2cc1OCC1CCNCC1` [Example 282, N-[5-chloro-6-({6-(methyloxy)-7-[(piperidin-4-ylmethyl)oxy]quinolin-4-yl}oxy)pyridin-3-yl]-N′-(4-fluorophenyl)cyclopropane-1,1-dicarboxamide], the IC50 in test [1], in test [2], in test [3], in test [4] and in test [5] was under 50 nM in each case.

Source of the values: patent US8476298B2 (Exelixis, Inc., priority 2003, dated 2013).
